# Laboratory results published in patent US8722849B2, “Polypeptides” (Novo Nordisk A/S, priority 2011, dated 2014).
# Read-outs that look alike come from different tables or passages of the source. Starred links: 1 amine or outer side, 2 acyl side, 3 side chain; linkers in the order of their positions; H or OH if unused. Positions of bridges follow the written chain, without caps; N, C: chain ends. Residues, ends and D or L forms follow the SMILES beside them. *: point of attachment. C20 diacid = O=C(O)CCCCCCCCCCCCCCCCCCC(=O)*; γGlu = O=C(O)[C@H](CCC(=O)[*:2])N[*:1]
# Columns and labels:
# [1] = target: T1, human calcitonin receptor (Homo sapiens, UniProt P30988); assay: Assay (II)a functional CRE-luciferase assay, human calcitonin receptor; format: cell-based; settings: Table 7; human calcitonin (CTa) receptor
# T1 construct: expressed in transfected cells; host or cells: BHK570
# T1 sequence (P30988 25-474): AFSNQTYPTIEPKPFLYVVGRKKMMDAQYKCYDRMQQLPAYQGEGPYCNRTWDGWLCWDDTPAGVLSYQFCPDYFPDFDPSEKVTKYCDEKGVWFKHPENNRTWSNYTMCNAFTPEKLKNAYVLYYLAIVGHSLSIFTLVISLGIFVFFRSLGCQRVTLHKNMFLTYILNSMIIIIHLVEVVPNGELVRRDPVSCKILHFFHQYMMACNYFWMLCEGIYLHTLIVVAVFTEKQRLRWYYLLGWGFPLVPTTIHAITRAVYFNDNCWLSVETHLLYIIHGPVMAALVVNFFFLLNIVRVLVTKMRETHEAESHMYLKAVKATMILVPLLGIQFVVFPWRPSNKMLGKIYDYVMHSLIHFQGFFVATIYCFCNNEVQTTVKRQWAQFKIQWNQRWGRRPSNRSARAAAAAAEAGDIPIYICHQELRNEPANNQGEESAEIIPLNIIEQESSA
# [2] = target: T2, human amylin receptor (amylin 3(a) receptor: human calcitonin receptor + RAMP-3) (Homo sapiens, UniProt O60896+P30988); assay: Assay (II)a functional CRE-luciferase assay, human amylin receptor; format: cell-based; settings: Table 2; BHK amylin 3(a)-receptor/CRE-luc cells
# T2 construct: expressed in transfected cells; host or cells: BHK570
# T2 sequence (P30988 25-474): T1 sequence (P30988 25-474)
# T2 sequence (O60896 24-148 partner): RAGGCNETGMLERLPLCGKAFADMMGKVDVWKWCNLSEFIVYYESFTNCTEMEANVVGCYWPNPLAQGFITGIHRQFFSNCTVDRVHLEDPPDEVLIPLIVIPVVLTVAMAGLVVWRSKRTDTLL
# [3] = Assay (III) ThT fibrillation assay for physical stability; format: physicochemical
# How it was run: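 Freshly prepared formulations, pH-adjusted, with 1 μM ThT; four or eight replicates incubated at 37 °C under 960 rpm orbital shaking. Fluorescence (ex 444/em 485 nm) read every 20 min; […]. Peptide concentration measured by RP-HPLC before and after the run.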
# [4] = Assay (IV) determination of solubility; format: physicochemical
# How it was run: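 Polypeptide in water (~500 nmol/ml stock) was mixed 1:1 with 100 mM buffers from pH 3.0 to 8.0 (glycylglycine pH 3.0–5.0; bistrispropane pH 6.0–8.0). After 18 hours at room temperature, samples were centrifuged and the polypeptide remaining in solution was quantified by HPLC.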
# [5] = bistrispropane buffer, pH 6, pH 6.0, read-out: Solubility pH 6.0
# [6] = bistrispropane buffer, pH 6.5, pH 6.5, read-out: Solubility pH 6.5
# [7] = bistrispropane buffer, pH 7, pH 7.0, 18 hours at room temperature, Table 3, read-out: Solubility pH 7.0
# [8] = bistrispropane buffer, pH 7, pH 7.0, read-out: Solubility pH 7.0
# [9] = bistrispropane buffer, pH 7.5, pH 7.5, read-out: Solubility pH 7.5
# [10] = bistrispropane buffer, pH 8, pH 8.0, read-out: Solubility pH 8.0
# [11] = glycylglycine buffer, pH 3, pH 3.0, read-out: Solubility pH 3.0
# [12] = glycylglycine buffer, pH 4, pH 4.0, 18 hours at room temperature, Table 2, read-out: Solubility pH 4.0
# [13] = glycylglycine buffer, pH 4, pH 4.0, read-out: Solubility pH 4.0
# [14] = glycylglycine buffer, pH 5, pH 5.0, read-out: Solubility pH 5.0
# [15] = bistrispropane buffer, pH 7, pH 7.0, Table 8, read-out: Solubility pH 7.0
# [16] = bistrispropane buffer, pH 7, pH 7.0, Table 9, read-out: Solubility pH 7.0
# [17] = bistrispropane buffer, pH 7.5, pH 7.5, Table 9, read-out: Solubility pH 7.5
EC50 [1] [nM],EC50 [2] [nM],ThT pH 4.0 lag time (h) ([3]; ThT fibrillation assay),"solubility at 18 h [4, 5] [µM]","solubility at 18 h [4, 6] [µM]","solubility at 18 h [4, 7] [µM]","solubility at 18 h [4, 8] [µM]","solubility at 18 h [4, 9] [µM]","solubility at 18 h [4, 10] [µM]","solubility at 18 h [4, 11] [µM]","solubility at 18 h [4, 12] [µM]","solubility at 18 h [4, 13] [µM]","solubility at 18 h [4, 14] [µM]",ThT pH 4.0 lag time ([3]; Table 8) [h],ThT pH 4.0 lag time ([3]; Table 9) [h],ThT pH 4.0 lag time ([3]; ThT fibrillation assay) [h],"solubility at 18 h [4, 15] [µM]","solubility at 18 h [4, 16] [µM]","solubility at 18 h [4, 17] [µM]",SMILES
0.022,0.0415,6,75,122,165,165,> 200,> 200,> 200,> 200,> 200,> 200,,,,,,,"CC[C@H](C)[C@H](NC(=O)[C@@H]1CCCN1C(=O)CNC(=O)[C@H](Cc1ccccc1)NC(=O)[C@H](CC(N)=O)NC(=O)[C@H](CC(N)=O)NC(=O)[C@H](CO)NC(=O)[C@H](CO)NC(=O)[C@H](CCCNC(=N)N)NC(=O)[C@@H](NC(=O)[C@H](CC(C)C)NC(=O)[C@H](Cc1ccccc1)NC(=O)[C@H](CCC(=O)O)NC(=O)[C@H](C)NC(=O)[C@H](CC(C)C)NC(=O)[C@H](CCCNC(=N)N)NC(=O)[C@H](CCC(N)=O)NC(=O)[C@@H](NC(=O)[C@H](C)NC(=O)[C@@H]1CSSC[C@H](NC(=O)[C@H](Cc2c[nH]cn2)NC(=O)CC[C@H](NC(=O)CCCCCCCCCCCCCCCCCCC(=O)O)C(=O)O)C(=O)N[C@@H](CC(N)=O)C(=O)N[C@@H]([C@@H](C)O)C(=O)N[C@@H](C)C(=O)N[C@@H]([C@@H](C)O)C(=O)N1)[C@@H](C)O)C(C)C)C(=O)N[C@@H](CC(C)C)C(=O)N1CCC[C@H]1C(=O)N1CCC[C@H]1C(=O)N[C@H](C(=O)N[C@@H](CC(N)=O)C(=O)N[C@H](C(=O)NCC(=O)N[C@@H](CO)C(=O)N[C@@H](CC(N)=O)C(=O)N[C@H](C(=O)N1CCC[C@H]1C(N)=O)[C@@H](C)O)C(C)C)[C@@H](C)O [Example 143, N-alpha-[(S)-4-Carboxy-4-(19-carboxynonadecanoylamino)butyryl]-[His1,Glu14,Arg18,Pro37]-pramlintide] ({C20 diacid-γGlu}-HCNTATCATQRLAEFLVRSSNNFGPILPPTNVGSNTP-NH2; disulfide 2-7 (inferred))"
0.083,0.0805,>45,178,> 200,> 200,> 200,> 200,> 200,> 200,> 200,> 200,> 200,>45,>45,>45,> 200,> 200,> 200,"CC[C@H](C)[C@H](NC(=O)[C@@H]1CCCN1C(=O)CNC(=O)[C@H](Cc1ccccc1)NC(=O)[C@H](CC(N)=O)NC(=O)[C@H](CC(N)=O)NC(=O)[C@H](CO)NC(=O)[C@H](CO)NC(=O)[C@H](Cc1c[nH]cn1)NC(=O)[C@H](Cc1c[nH]cn1)NC(=O)[C@H](CC(C)C)NC(=O)[C@H](Cc1ccccc1)NC(=O)[C@H](CCC(=O)O)NC(=O)[C@H](C)NC(=O)[C@H](CC(C)C)NC(=O)[C@H](CCCCN)NC(=O)[C@H](CCC(N)=O)NC(=O)[C@@H](NC(=O)[C@H](C)NC(=O)[C@@H]1CSSC[C@H](NC(=O)[C@H](CCCCN)NC(=O)CC[C@H](NC(=O)CCCCCCCCCCCCCCCCCCC(=O)O)C(=O)O)C(=O)N[C@@H](CC(N)=O)C(=O)N[C@@H]([C@@H](C)O)C(=O)N[C@@H](C)C(=O)N[C@@H]([C@@H](C)O)C(=O)N1)[C@@H](C)O)C(=O)N[C@@H](CC(C)C)C(=O)N1CCC[C@H]1C(=O)N1CCC[C@H]1C(=O)N[C@H](C(=O)N[C@@H](CC(N)=O)C(=O)N[C@H](C(=O)NCC(=O)N[C@@H](CO)C(=O)N[C@@H](CC(N)=O)C(=O)N[C@H](C(=O)N1CCC[C@H]1C(N)=O)[C@@H](C)O)C(C)C)[C@@H](C)O [Example 145, N-alpha-[(S)-4-Carboxy-4-(19-carboxynonadecanoylamino)butyryl]-[Lys11,Glu14,His17,Pro37]-pramlintide] ({C20 diacid-γGlu}-KCNTATCATQKLAEFLHHSSNNFGPILPPTNVGSNTP-NH2; disulfide 2-7 (inferred))"
0.0595,0.091,>45,> 200,> 200,> 200,> 200,> 200,> 200,> 200,> 200,> 200,> 200,>45,>45,>45,> 200,> 200,> 200,"CC[C@H](C)[C@H](NC(=O)[C@@H]1CCCN1C(=O)CNC(=O)[C@H](Cc1ccccc1)NC(=O)[C@H](CC(N)=O)NC(=O)[C@@H](NC(=O)[C@H](CO)NC(=O)[C@H](CO)NC(=O)[C@H](Cc1c[nH]cn1)NC(=O)[C@H](Cc1c[nH]cn1)NC(=O)[C@H](CC(C)C)NC(=O)[C@H](Cc1ccccc1)NC(=O)[C@H](CCC(=O)O)NC(=O)[C@H](C)NC(=O)[C@H](CC(C)C)NC(=O)[C@H](CCCNC(=N)N)NC(=O)[C@H](CCC(N)=O)NC(=O)[C@@H](NC(=O)[C@H](C)NC(=O)[C@@H]1CSSC[C@H](NC(=O)[C@H](CCCCN)NC(=O)CC[C@H](NC(=O)CCCCCCCCCCCCCCCCCCC(=O)O)C(=O)O)C(=O)N[C@@H](CC(N)=O)C(=O)N[C@@H]([C@@H](C)O)C(=O)N[C@@H](C)C(=O)N[C@@H]([C@@H](C)O)C(=O)N1)[C@@H](C)O)[C@@H](C)O)C(=O)N[C@@H](CC(C)C)C(=O)N1CCC[C@H]1C(=O)N1CCC[C@H]1C(=O)N[C@H](C(=O)N[C@@H](CC(N)=O)C(=O)N[C@H](C(=O)NCC(=O)N[C@@H](CO)C(=O)N[C@@H](CC(N)=O)C(=O)N[C@H](C(=O)N1CCC[C@H]1C(N)=O)[C@@H](C)O)C(C)C)[C@@H](C)O [Example 146, N-alpha-[(S)-4-Carboxy-4-(19-carboxynonadecanoylamino)butyryl]-[Glu14,His17,Thr21,Pro37]-pramlintide] ({C20 diacid-γGlu}-KCNTATCATQRLAEFLHHSSTNFGPILPPTNVGSNTP-NH2; disulfide 2-7 (inferred))"
